Test results published in US6358885B1, “Substituted phenylheterocyclic herbicides” (Mississippi State University, priority 1992, dated 2002).

Columns and labels:
Assay in all cases: Test G preemergence/postemergence greenhouse plant response rating 0 to 100
[1] = tested on: annual bluegrass; format: in vivo, Poa annua; details: 0 to 100 scale
Summary of the method: (§1)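 Greenhouse pots, one species each; non-phytotoxic solvent vehicle. Read-out: visual injury vs untreated, 13–21 DAT. Dash denotes no result.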

[2] = tested on: bermudagrass; format: in vivo, Cynodon dactylon; details: 0 to 100 scale
Summary of the method: as §1

[3] = tested on: broadleaf signalgrass; format: in vivo, Brachiaria plantaginea; details: 0 to 100 scale
Summary of the method: as §1

[4] = tested on: common purslane; format: in vivo, Portulaca oleracea; details: 0 to 100 scale
Summary of the method: as §1

[5] = tested on: common ragweed; format: in vivo, Ambrosia elatior; details: 0 to 100 scale
Summary of the method: as §1

[6] = tested on: dallisgrass; format: in vivo, Paspalum dilatatum; details: 0 to 100 scale
Summary of the method: as §1

[7] = tested on: goosegrass; format: in vivo, Eleusine indica; details: 0 to 100 scale
Summary of the method: as §1

[8] = tested on: guineagrass; format: in vivo, Panicum maximum; details: 0 to 100 scale
Summary of the method: as §1

[9] = tested on: itchgrass; format: in vivo, Rottboellia exaltata; details: 0 to 100 scale
Summary of the method: as §1

[10] = tested on: johnsongrass; format: in vivo, Sorghum halepense; details: 0 to 100 scale
Summary of the method: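 Scoring: visual injury at 13 to 21 days post-application, compared with untreated controls. Planting: one species per pot in greenhouse medium. Dosing: compound in non-phytotoxic solvent, within one day of sowing for preemergence or at 2–4 leaves for postemergence.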

[11] = tested on: large crabgrass; format: in vivo, Digitaria sanguinalis; details: 0 to 100 scale
Summary of the method: as §1

[12] = tested on: peanut; format: in vivo, Arachis hypoagaea; details: 0 to 100 scale
Summary of the method: as §1

[13] = tested on: pitted morningglory; format: in vivo, Ipomoea lacunosa; details: 0 to 100 scale
Summary of the method: as §1

[14] = tested on: sandbur; format: in vivo, Cenchrus echinatus; details: 0 to 100 scale
Summary of the method: as §1

[15] = tested on: smooth crabgrass; format: in vivo, Digitaria ischaemum; details: 0 to 100 scale
Summary of the method: as §1

[16] = tested on: yellow nutsedge; format: in vivo, Cyperus esculentus; details: Rate 125 g/ha, 0 to 100 scale
Summary of the method: as §1

## C#CCN1C(=O)COc2cc(F)c(-c3nn4c(c3Cl)CCCC4)cc21 [Compound 34]
[1]; POSTEMERGENCE, Rate 125 g/ha
  Plant response rating, Ann Bluegrass: 0
[1]; POSTEMERGENCE, Rate 250 g/ha
  Plant response rating, Ann Bluegrass: 0
[1]; PREEMERGENCE, Rate 125 g/ha
  Plant response rating, Ann Bluegrass: 0
[1]; PREEMERGENCE, Rate 250 g/ha
  Plant response rating, Ann Bluegrass: 50
[2]; POSTEMERGENCE, Rate 125 g/ha
  Plant response rating, Bermudagrass: 0
[2]; POSTEMERGENCE, Rate 250 g/ha
  Plant response rating, Bermudagrass: 0
[2]; PREEMERGENCE, Rate 125 g/ha
  Plant response rating, Bermudagrass: 0
[2]; PREEMERGENCE, Rate 250 g/ha
  Plant response rating, Bermudagrass: 0
[3]; POSTEMERGENCE, Rate 125 g/ha
  Plant response rating, Brdlf Sgnlgrass: 0
[3]; POSTEMERGENCE, Rate 250 g/ha
  Plant response rating, Brdlf Sgnlgrass: 0
[3]; PREEMERGENCE, Rate 125 g/ha
  Plant response rating, Brdlf Sgnlgrass: 0
[3]; PREEMERGENCE, Rate 250 g/ha
  Plant response rating, Brdlf Sgnlgrass: 0
[4]; POSTEMERGENCE, Rate 125 g/ha
  Plant response rating, Cmn Purslane: 100
[4]; POSTEMERGENCE, Rate 250 g/ha
  Plant response rating, Cmn Purslane: 100
[4]; PREEMERGENCE, Rate 125 g/ha
  Plant response rating, Cmn Purslane: 0
[4]; PREEMERGENCE, Rate 250 g/ha
  Plant response rating, Cmn Purslane: 100
[5]; POSTEMERGENCE, Rate 125 g/ha
  Plant response rating, Cmn Ragweed: 70
[5]; POSTEMERGENCE, Rate 250 g/ha
  Plant response rating, Cmn Ragweed: 100
[5]; PREEMERGENCE, Rate 125 g/ha
  Plant response rating, Cmn Ragweed: 0
[5]; PREEMERGENCE, Rate 250 g/ha
  Plant response rating, Cmn Ragweed: 0
[6]; POSTEMERGENCE, Rate 125 g/ha
  Plant response rating, Dallisgrass: 0
[6]; POSTEMERGENCE, Rate 250 g/ha
  Plant response rating, Dallisgrass: 0
[6]; PREEMERGENCE, Rate 125 g/ha
  Plant response rating, Dallisgrass: 0
[6]; PREEMERGENCE, Rate 250 g/ha
  Plant response rating, Dallisgrass: 80
[7]; POSTEMERGENCE, Rate 125 g/ha
  Plant response rating, Goosegrass: 0
[7]; POSTEMERGENCE, Rate 250 g/ha
  Plant response rating, Goosegrass: 0
[7]; PREEMERGENCE, Rate 125 g/ha
  Plant response rating, Goosegrass: 0
[7]; PREEMERGENCE, Rate 250 g/ha
  Plant response rating, Goosegrass: 30
[8]; POSTEMERGENCE, Rate 125 g/ha
  Plant response rating, Guineagrass: 0
[8]; POSTEMERGENCE, Rate 250 g/ha
  Plant response rating, Guineagrass: 0
[8]; PREEMERGENCE, Rate 125 g/ha
  Plant response rating, Guineagrass: 0
[8]; PREEMERGENCE, Rate 250 g/ha
  Plant response rating, Guineagrass: 0
[9]; POSTEMERGENCE, Rate 125 g/ha
  Plant response rating, Itchgrass: 0
[9]; POSTEMERGENCE, Rate 250 g/ha
  Plant response rating, Itchgrass: 0
[9]; PREEMERGENCE, Rate 125 g/ha
  Plant response rating, Itchgrass: 0
[9]; PREEMERGENCE, Rate 250 g/ha
  Plant response rating, Itchgrass: 20
[10]; POSTEMERGENCE, Rate 125 g/ha
  Plant response rating, Johnsongrass: 0
[10]; POSTEMERGENCE, Rate 250 g/ha
  Plant response rating, Johnsongrass: 0
[10]; PREEMERGENCE, Rate 125 g/ha
  Plant response rating, Johnsongrass: 0
[10]; PREEMERGENCE, Rate 250 g/ha
  Plant response rating, Johnsongrass: 0
[11]; POSTEMERGENCE, Rate 125 g/ha
  Plant response rating, Large Crabgrass: 0
[11]; POSTEMERGENCE, Rate 250 g/ha
  Plant response rating, Large Crabgrass: 0
[11]; PREEMERGENCE, Rate 125 g/ha
  Plant response rating, Large Crabgrass: 0
[11]; PREEMERGENCE, Rate 250 g/ha
  Plant response rating, Large Crabgrass: 60
[12]; POSTEMERGENCE, Rate 125 g/ha
  Plant response rating, Peanuts: 30
[12]; POSTEMERGENCE, Rate 250 g/ha
  Plant response rating, Peanuts: 0
[12]; PREEMERGENCE, Rate 125 g/ha
  Plant response rating, Peanuts: 0
[12]; PREEMERGENCE, Rate 250 g/ha
  Plant response rating, Peanuts: 0
[13]; POSTEMERGENCE, Rate 125 g/ha
  Plant response rating, Pit Morninglory: 30
[13]; POSTEMERGENCE, Rate 250 g/ha
  Plant response rating, Pit Morninglory: 50
[13]; PREEMERGENCE, Rate 125 g/ha
  Plant response rating, Pit Morninglory: 0
[13]; PREEMERGENCE, Rate 250 g/ha
  Plant response rating, Pit Morninglory: 30
[14]; POSTEMERGENCE, Rate 125 g/ha
  Plant response rating, S. Sandbur: 0
[14]; POSTEMERGENCE, Rate 250 g/ha
  Plant response rating, S. Sandbur: 0
[14]; PREEMERGENCE, Rate 125 g/ha
  Plant response rating, S. Sandbur: 0
[14]; PREEMERGENCE, Rate 250 g/ha
  Plant response rating, S. Sandbur: 0
[15]; POSTEMERGENCE, Rate 125 g/ha
  Plant response rating, Smooth Crabgras: 0
[15]; POSTEMERGENCE, Rate 250 g/ha
  Plant response rating, Smooth Crabgras: 0
[15]; PREEMERGENCE, Rate 125 g/ha
  Plant response rating, Smooth Crabgras: 0
[15]; PREEMERGENCE, Rate 250 g/ha
  Plant response rating, Smooth Crabgras: 80
[16]; POSTEMERGENCE
  Plant response rating, Yellow Nutsedge: 0
[16]; PREEMERGENCE
  Plant response rating, Yellow Nutsedge: 0
